Measurements published in patent publication US4387238A, “Epoxysuccinamic acid compounds” (Taisho Pharmaceutical Co., Ltd., priority 1978, dated 1983).
Like-named read-outs stand apart in the source and are kept apart here.

Assays:
papain = biological target: T1, papain (Carica papaya, UniProt P00784); assay: Papain inhibitory activity (milk casein proteolysis); assay type: biochemical; set-up: unit not given beside the values; conditions: amount of inhibitor for 50% inhibition; pH 6.8, 40° C., casein substrate
T1 construct: purchased Sigma Chem. Co
T1 sequence (P00784 134-345): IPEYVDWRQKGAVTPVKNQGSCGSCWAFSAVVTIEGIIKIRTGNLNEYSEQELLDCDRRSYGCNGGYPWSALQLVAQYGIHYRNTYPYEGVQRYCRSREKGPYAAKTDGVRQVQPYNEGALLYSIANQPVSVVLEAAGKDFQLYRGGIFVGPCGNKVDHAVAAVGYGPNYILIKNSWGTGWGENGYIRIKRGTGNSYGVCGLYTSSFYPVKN
Description: Papain inhibitory activity of the compounds of the present invention was assayed as follows: To 0.5 ml of a solution of papain (80 μg/ml, Sigma Chem. Co., 2x, cry.), were added 0.25 ml of 40 mM cysteine dissolved in 20 mM disodium ethylenediamine tetraacetic acid solution adjusted pH to 6.8 with sodium hydroxide and 0.25 ml of 33 mM phosphate buffer (pH 6.8) with or without inhibitor. After incubation for 15 minutes at 40° C., the resulting mixture was added to 5 ml of 1% milk casein solution in the same buffer as described above, and further incubated for 10 minutes at 40° C. Then the mixture was mixed with 5 ml of 0.44 M trichloroacetic acid solution and followed by filtration with a sheet of Toyo filter paper No. 4.
The extinction of the filtrate was read at 280 nm. The percent inhibition was calculated from the formula, 100×(B-A)/B; wherein B stands for the absorbance without inhibitor and A for the absorbance with inhibitor. The compound Nos. in Table 2 are as defined in Examples as described hereinafter.

[1] = tested on: adjuvant-induced polyarthritis; assay: Effect on the development of adjuvant-induced polyarthritis in rat (hind paw volume); assay type: in vivo, Sprague Dawley rat; conditions: 30 mg/kg of body weight, daily oral, 8 rats/group
Description: The compounds of the present invention show excellent anti-inflammatory activity as measured by their ability to inhibit adjuvant induced polyarthritis as compared with the known epoxysuccinates. That is, they show potent and continuous effectiveness on oral administration of smaller components than the known epoxysuccinic acid compounds. Effect of the compounds of the present invention on the development of adjuvant-induced polyarthritis in rat was assayed as follows: Adjuvant arthritis is produced by a single intracutaneous injection of 0.1 ml of the adjuvant mixture containing heat-killed mycobacteria of the human Aoyama B strain suspended in liquid paraffin in 0.6% in the middle part of the distal tail of Sprague Dawley rat (female, 8 weeks old). The compounds suspended in 0.5% carboxymethylcellulose solution protect the animal against the development of lession of adjuvant arthritis in daily oral administration beginning on the day of adjuvant injection and continuing for 24 days thereafter. The activity is measured as the mean inhibition percent for the increase of the hind paw volume of the 8 rats/group on the days 17 and 23 on which the legs become inflamed and reach maximum volumes. The compound Nos. in Table 1 are as defined in Examples as described hereinafter.

[2] = 408 h, day 17, mean inhibition for increase of hind paw volume, read-out: Inhibition(%) 17 days
[3] = 552 h, day 23, mean inhibition for increase of hind paw volume, read-out: Inhibition(%) 23 days

With `CCOC(=O)[C@@H]1O[C@H]1C(=O)Nc1ccccc1` (relative stereo) [Compound No. 1, ethyl N-phenyl-2,3-epoxysuccinamate] the ID50 (papain) was 24.04 γ, the inhibition in vivo at 30 mg/kg [1, 2] was 70% and the inhibition in vivo at 30 mg/kg [1, 3] was 62%.

With `CCOC(=O)[C@@H]1O[C@H]1C(=O)Nc1ccc([N+](=O)[O-])cc1` (relative stereo) [Compound No. 5, ethyl N-4'-nitrophenyl-2,3-epoxysuccinamate] the ID50 (papain) was 22.32 γ, the inhibition in vivo at 30 mg/kg [1, 2] was 65% and the inhibition in vivo at 30 mg/kg [1, 3] was 48%.

For `O=C(NC1CCCCC1)[C@@H]1O[C@H]1C(=O)OC1CCCC1` (relative stereo) [Compound No. 25, cyclopentyl N-cyclohexyl-2,3-epoxysuccinamate], the ID50 (papain) was 3.68 γ, the inhibition in vivo at 30 mg/kg [1, 2] was 76% and the inhibition in vivo at 30 mg/kg [1, 3] was 58%.

With `CCOC(=O)[C@@H]1O[C@H]1C(=O)N(C)C1CCCCC1` (relative stereo) [Compound No. 31, ethyl N-methyl-N-cyclohexyl-2,3-epoxysuccinamate] the ID50 (papain) was 53.19 γ, the inhibition in vivo at 30 mg/kg [1, 2] was 45% and the inhibition in vivo at 30 mg/kg [1, 3] was 38%.

In the case of `CC(C)COC(=O)[C@H]1O[C@@H]1C(=O)Nc1ccccc1` (relative stereo) [Compound No. 40, Isobutyl N-phenyl-2,3-epoxysuccinamate], the ID50 (papain) is reported as 13.20 γ, the inhibition in vivo at 30 mg/kg [1, 2] is reported as 40% and the inhibition in vivo at 30 mg/kg [1, 3] is reported as 35%.

In the case of `O=C(Nc1ccccc1)[C@H]1O[C@@H]1C(=O)OC1CCCCC1` (relative stereo) [Compound No. 45, Cyclohexyl N-phenyl-2,3-epoxysuccinamate], the ID50 (papain) is reported as 5.89 γ, the inhibition in vivo at 30 mg/kg [1, 2] is reported as 65% and the inhibition in vivo at 30 mg/kg [1, 3] is reported as 49%.

For `O=C(NCc1ccccc1)[C@H]1O[C@@H]1C(=O)Oc1ccccc1` (relative stereo) [Compound No. 48, Phenyl N-benzyl-2,3-epoxysuccinamate], the ID50 (papain) was 3.83 γ, the inhibition in vivo at 30 mg/kg [1, 2] was 45% and the inhibition in vivo at 30 mg/kg [1, 3] was 40%.

In the case of `CCNC(=O)[C@H]1O[C@@H]1C(=O)OC1CCCCC1` (relative stereo) [Compound No. 66, Cyclohexyl N-ethyl-2,3-epoxysuccinamate], the ID50 (papain) is reported as 11.05 γ, the inhibition in vivo at 30 mg/kg [1, 2] is reported as 75% and the inhibition in vivo at 30 mg/kg [1, 3] is reported as 62%.

With `CCOC(=O)[C@@H]1O[C@H]1C(=O)N1CCC(C)CC1` (relative stereo) [Compound No. 76, ethyl N-3'-methylpentamethylene-2,3-epoxysuccinamate] the ID50 (papain) was 79.53 γ, the inhibition in vivo at 30 mg/kg [1, 2] was 48% and the inhibition in vivo at 30 mg/kg [1, 3] was 42%.

In the case of `CC(C)CCNC(=O)[C@H]1O[C@@H]1C(=O)O` (relative stereo) [Compound No. 97, potassium N-isoamyl-2,3-epoxysuccinamate], the ID50 (papain) is reported as 0.266 γ.

`O=C(O)[C@@H]1O[C@H]1C(=O)NCC1CCCCC1` (relative stereo) [Compound No. 98, potassium N-cyclohexanemethyl-2,3-epoxysuccinamate] was tested, and the ID50 (papain) was 0.205 γ, the inhibition in vivo at 30 mg/kg [1, 2] was 55% and the inhibition in vivo at 30 mg/kg [1, 3] was 41%.

For `O=C(O)[C@@H]1O[C@H]1C(=O)NC1CCCCC1` (relative stereo) [Compound No. 100, sodium N-cyclohexyl-2,3-epoxysuccinamate], the ID50 (papain) was 0.231 γ.

`O=C(O)[C@@H]1O[C@H]1C(=O)N1CCCCC1` (relative stereo) [Compound No. 101, Potassium N-pentamethylene-2,3-epoxysuccinamate] was tested, and the ID50 (papain) was 4.05 γ.

For `CCNC(=O)[C@H]1O[C@@H]1C(=O)O` (relative stereo) [Compound No. 102, Potassium N-ethyl-2,3-epoxysuccinamate], the ID50 (papain) was 1.34 γ.

For `O=C(O)[C@@H]1O[C@H]1C(=O)N1CCCC1` (relative stereo) [Compound No. 103, Sodium N-tetramethylene-2,3-epoxysuccinamate], the ID50 (papain) was 13.42 γ.

For `O=C(O)[C@@H]1O[C@H]1C(=O)Nc1ccccc1` (relative stereo) [Compound No. 104, Sodium N-phenyl-2,3-epoxysuccinamate], the ID50 (papain) was 0.315 γ.

`O=C(O)[C@@H]1O[C@H]1C(=O)Nc1ccccc1` (relative stereo) [Compound No. 105, N-phenyl-2,3-epoxysuccinamic acid] was tested, and the ID50 (papain) was 0.278 γ.

With `O=C(O)[C@@H]1O[C@H]1C(=O)NC1CCCCC1` (relative stereo) [Compound No. 107, N-Cyclohexyl-2,3-epoxysuccinamic acid] the ID50 (papain) was 0.214 γ.

With `O=C(O)[C@@H]1O[C@H]1C(=O)NCC1CCCC1` (relative stereo) [Compound No. 108, N-Cyclopentanemethyl-2,3-epoxysuccinamic acid] the ID50 (papain) was 0.234 γ.

For `C=CCOC(=O)[C@H]1O[C@@H]1C(=O)NCC1CCCC1` (relative stereo) [compound 38, Allyl N-cyclopentanemethyl-2,3-epoxysuccinamate], the ID50 (papain) was 4.26 γ.

With `COC(=O)[C@@H]1O[C@H]1C(=O)NC(C)C` (stereo in doubt) [Compound No. 34, Methyl N-isopropyl-2,3-epoxysuccinamate] the ID50 (papain) was 32.35 γ.

With `COC(=O)[C@H]1O[C@@H]1C(=O)NC(C)C` (stereo in doubt) [Compound No. 60, Methyl N-isopropyl-2,3-epoxysuccinamate] the ID50 (papain) was 32.35 γ.

With `CCOC(=O)[C@@H]1O[C@H]1C(=O)N1CCOC(C)C1` (stereo partly shown) [Compound No. 33, ethyl N-1'-methyloxydiethylene-2,3-epoxysuccinamate] the ID50 (papain) was 95.10 γ.

`CCOC(=O)C1OC1C(=O)N1CCSCC1C` (stereo not shown) [Compound No. 80, Ethyl N-1'-methylthiadiethylene-2,3-epoxysuccinamate] was tested, and the ID50 (papain) was 120.53 γ.

With `CCOC(=O)C1OC1C(=O)N1CCCC1C(=O)OCc1ccccc1` (stereo not shown) [Compound No. 86, ethyl N-1'-carbobenzoxytetramethylene-2,3-epoxysuccinamate] the ID50 (papain) was 105.50 γ.

`CCOC(=O)C1OC1C(=O)N1CCCC1C(=O)OC` (stereo not shown) [Compound No. 87, ethyl N-1'-carbomethoxytetramethylene-2,3-epoxysuccinamate] was tested, and the ID50 (papain) was 98.10 γ.

With `CCCCOC(=O)C1CCCN1C(=O)C1OC1C(=O)OCC` (stereo not shown) [Compound No. 88, ethyl N-1'-carbobutoxytetramethylene-2,3-epoxysuccinamate] the ID50 (papain) was 118.41 γ.

With `O=C(O)C1OC1C(=O)N1CCCC1C(=O)O` (stereo not shown) [Compound No. 99, potassium N-1'-carbopotassium oxytetramethylene-2,3-epoxysuccinamate] the ID50 (papain) was 0.104 γ.

In the case of `O=C(O)C1OC1C(=O)N1CCCC1C(=O)O` (stereo not shown) [Compound No. 106, N-1'-carboxytetramethylene-2,3-epoxysuccinamic acid], the ID50 (papain) is reported as 0.301 γ.
